One experiment deals with estrogen receptor. The experiment in a line: estrogen receptor relative binding affinity, expanded training set of 107 compounds. Conditions: input class, 107-compound training set. An excerpt:
The training set included weak estrogen receptor binders in addition to strong and medium estrogen receptor binders.
For this model, strong estrogen receptor binders were defined as having log(RBA)>−0.25 and weak estrogen receptor binders were defined as having log(RBA)<−3.0. Medium estrogen receptor binders were defined as having log(RBA) in between.
As for 4,4′-Methylenebis (N,N-dimethyl), the Class result is recorded as “W (weak estrogen receptor binders were defined as having log(RBA)<−3.0)”.

With `C(C=Cc1ccccc1)=Cc1ccccc1` [1,4-Diphenyl-1,3-butadiene], the Class entry was “W (weak estrogen receptor binders were defined as having log(RBA)<−3.0)”.

With `OCCCCCCCCO` [1,8-Octanediol], the Class entry is “W (weak estrogen receptor binders were defined as having log(RBA)<−3.0)”.

Consider `COc1ccc(C(=O)c2ccccc2O)c(O)c1` [2,2′-Dihydroxy4-methoxybenzophene], for which the Class result is “W (weak estrogen receptor binders were defined as having log(RBA)<−3.0)”.

As for `Oc1ccc(Cl)cc1Cc1cc(Cl)ccc1O` [2,2′-Methylenebis (4-chlorophenol)], the Class result is “M (Medium estrogen receptor binders were defined as having log(RBA) in between)”.

Turning to `O=C(O)COc1cc(Cl)c(Cl)cc1Cl` [2,4,5-T], the Class result is recorded as “W (weak estrogen receptor binders were defined as having log(RBA)<−3.0)”.

Turning to `O=C(c1ccccc1)c1ccc(O)cc1O` [2,4-Dihydroxybenzophenone], the Class result is on record as “W (weak estrogen receptor binders were defined as having log(RBA)<−3.0)”.

`O=C(c1ccc(O)cc1)c1ccc(O)cc1` [4,4′-Dihydroxybenzophenone]: the Class result was “M (Medium estrogen receptor binders were defined as having log(RBA) in between)”.

For the molecule `CC(C)(C)c1cc(Cc2cc(C(C)(C)C)c(O)c(C(C)(C)C)c2)cc(C(C)(C)C)c1O` [4,4′-Methylene(2,6-ditertbutylphenol)], the Class result is recorded as “W (weak estrogen receptor binders were defined as having log(RBA)<−3.0)”.

`O=S(=O)(c1ccc(O)cc1)c1ccc(O)cc1` [4,4′-Sulfonylphenol]: the Class result is “W (weak estrogen receptor binders were defined as having log(RBA)<−3.0)”.

Take `Oc1ccc(OCc2ccccc2)cc1` [4-Benzyloxyphenol]: the Class result is listed as “W (weak estrogen receptor binders were defined as having log(RBA)<−3.0)”.

As to `CCCCCCCCCc1ccc(O)cc1` [4-Nonylphenol], the Class result is on record as “M (Medium estrogen receptor binders were defined as having log(RBA) in between)”.

As for `CC/C(=C(\c1ccc(O)cc1)c1ccc(OCCN(C)C)cc1)c1ccccc1` [4-OH-Tamoxifen], the Class result is on record as “S (strong estrogen receptor binders were defined as having log(RBA)>−0.25)”.

Consider `C[C@]12CC[C@@H]3c4ccc(O)cc4CC[C@H]3[C@@H]1CC[C@@H]2O` [17β-Estradiol], for which the Class entry is “S (strong estrogen receptor binders were defined as having log(RBA)>−0.25)”.

`O=C1C=CC(=C(c2ccc(O)cc2)c2ccc(O)cc2)C=C1` [Aurin]: the Class entry is “M (Medium estrogen receptor binders were defined as having log(RBA) in between)”.

For the molecule `CCCCC(CC)COC(=O)c1ccccc1C(=O)OCC(CC)CCCC` (stereo not shown) [BIS (2-ethylhexyl) phthalate], the Class result was “W (weak estrogen receptor binders were defined as having log(RBA)<−3.0)”.

For `Oc1ccccc1Cc1ccccc1O` [BIS (2-hydroxyphenyl)-methane], the Class entry is recorded as “W (weak estrogen receptor binders were defined as having log(RBA)<−3.0)”.

With `Oc1ccc(Cc2ccc(O)cc2)cc1` [BIS (4-hydroxyphenyl)-methane], the Class result is on record as “W (weak estrogen receptor binders were defined as having log(RBA)<−3.0)”.

`OCc1ccccc1` [Benzylalcohol]: the Class result is reported as “W (weak estrogen receptor binders were defined as having log(RBA)<−3.0)”.

On to `CCC(C)(c1ccc(O)cc1)c1ccc(O)cc1` [Bisphenol B], for which the Class entry is “M (Medium estrogen receptor binders were defined as having log(RBA) in between)”.

As for `CCCCOC(=O)c1ccc(N)cc1` [Butyl-4-aminobenzoate], the Class entry is listed as “W (weak estrogen receptor binders were defined as having log(RBA)<−3.0)”.

On to `CC(C)CCC[C@@H](C)[C@H]1CC[C@H]2[C@@H]3CC=C4C[C@@H](O)CC[C@]4(C)[C@H]3CC[C@]12C` [Cholesterol], for which the Class entry was “W (weak estrogen receptor binders were defined as having log(RBA)<−3.0)”.

Regarding `CC12CCC(CC1)C(C)(C)O2` [Cineole], the Class result is on record as “W (weak estrogen receptor binders were defined as having log(RBA)<−3.0)”.

`O=C(O)C=Cc1ccccc1` [Cinnamic acid]: the Class entry is listed as “W (weak estrogen receptor binders were defined as having log(RBA)<−3.0)”.

With `Oc1ccc(C=Cc2ccccc2)cc1` [Compound 4-Stilbenol, 4-Stilbenol], the Class entry was “W (weak estrogen receptor binders were defined as having log(RBA)<−3.0)”.

In the case of `C[C@]12C[C@H](O)[C@H]3[C@@H](CCC4=CC(=O)CC[C@@]43C)[C@@H]1CC[C@@H]2C(=O)CO` [Corticosterone], the Class entry is “W (weak estrogen receptor binders were defined as having log(RBA)<−3.0)”.

Consider `Clc1ccc(C(c2ccccc2Cl)C(Cl)Cl)cc1` (stereo not shown) [DDD-o,p′], for which the Class result was “W (weak estrogen receptor binders were defined as having log(RBA)<−3.0)”.

`Clc1ccc(C(c2ccc(Cl)cc2)C(Cl)Cl)cc1` [DDD-p,p′]: the Class result is reported as “W (weak estrogen receptor binders were defined as having log(RBA)<−3.0)”.

Regarding `ClC(Cl)=C(c1ccc(Cl)cc1)c1ccc(Cl)cc1` [DDE-p,p′], the Class entry is given as “W (weak estrogen receptor binders were defined as having log(RBA)<−3.0)”.

With `Clc1ccc(C(c2ccccc2Cl)C(Cl)(Cl)Cl)cc1` (stereo not shown) [DDT-o,p′], the Class entry was “W (weak estrogen receptor binders were defined as having log(RBA)<−3.0)”.

Take `Clc1ccc(C(c2ccc(Cl)cc2)C(Cl)(Cl)Cl)cc1` [DDT-p,p′]: the Class result was “W (weak estrogen receptor binders were defined as having log(RBA)<−3.0)”.

For `O=c1c(-c2ccc(O)cc2)coc2cc(O)ccc12` [Daidzein], the Class entry was “M (Medium estrogen receptor binders were defined as having log(RBA) in between)”.

Take `CCCCOC(=O)c1ccccc1C(=O)OCCCC` [Dibutyl phthalate]: the Class entry is recorded as “W (weak estrogen receptor binders were defined as having log(RBA)<−3.0)”.

`CCOC(=O)c1ccccc1C(=O)OCC` [Diethyl phthalate]: the Class result was “W (weak estrogen receptor binders were defined as having log(RBA)<−3.0)”.

As to `CC(CCC(=O)O)(c1ccc(O)cc1)c1ccc(O)cc1` [Diphenolic acid], the Class entry is on record as “W (weak estrogen receptor binders were defined as having log(RBA)<−3.0)”.

In the case of `NCCc1ccc(O)c(O)c1` [Dopamine], the Class result is “W (weak estrogen receptor binders were defined as having log(RBA)<−3.0)”.

With `C[C@]12CC[C@@H]3c4ccc(O)cc4[C@@H](O)C[C@H]3[C@@H]1CC[C@@H]2O` [Estra-1,3,5(10)-trien-3,6α,17β-triol], the Class result is on record as “S (strong estrogen receptor binders were defined as having log(RBA)>−0.25)”.

`C[C@@]12CCC[C@H]1[C@@H]1CCc3cc(O)ccc3[C@H]1CC2` [Estra-1,3,5(10)-trien-3-ol]: the Class entry is given as “S (strong estrogen receptor binders were defined as having log(RBA)>−0.25)”.

Regarding `CCOC(=O)C=Cc1ccccc1` [Ethylcinnamate], the Class entry is listed as “W (weak estrogen receptor binders were defined as having log(RBA)<−3.0)”.

Regarding `C#C[C@]1(O)CC[C@H]2[C@@H]3CCc4cc(O)ccc4[C@H]3CC[C@@]21C` [Ethynyl estradiol], the Class entry is recorded as “S (strong estrogen receptor binders were defined as having log(RBA)>−0.25)”.

For `C[C@]12CCC(=O)C[C@H]1CC[C@@H]1[C@@H]2CC[C@]2(C)[C@@H](O)CC[C@@H]12` [Etiocholan-17β-ol-3-one], the Class entry is “W (weak estrogen receptor binders were defined as having log(RBA)<−3.0)”.

On to `C=CCc1ccc(O)c(OC)c1` [Eugenol], for which the Class result is on record as “W (weak estrogen receptor binders were defined as having log(RBA)<−3.0)”.

Regarding `CCCCCCC=O` [Heptanal], the Class result is reported as “W (weak estrogen receptor binders were defined as having log(RBA)<−3.0)”.

Regarding `COc1ccc([C@@H]2CC(=O)c3c(O)cc(O)cc3O2)cc1O` [Hesperetin], the Class result is listed as “W (weak estrogen receptor binders were defined as having log(RBA)<−3.0)”.

With `CCCCCCO` [Hexylalcohol], the Class result is “W (weak estrogen receptor binders were defined as having log(RBA)<−3.0)”.

Take `CC=Cc1ccc(O)c(OC)c1` [Isoeugenol]: the Class result is listed as “W (weak estrogen receptor binders were defined as having log(RBA)<−3.0)”.

Take `COc1ccc2[nH]cc(CCNC(C)=O)c2c1` [Melatonin]: the Class entry is “W (weak estrogen receptor binders were defined as having log(RBA)<−3.0)”.

With `C#C[C@]1(O)CC[C@H]2[C@@H]3CCc4cc(OC)ccc4[C@H]3CC[C@@]21C` [Mestranol], the Class entry is given as “S (strong estrogen receptor binders were defined as having log(RBA)>−0.25)”.

With `O=P(Oc1ccccc1)(Oc1ccccc1)Oc1ccccc1` [Triphenylphosphate], the Class result was “W (weak estrogen receptor binders were defined as having log(RBA)<−3.0)”.

Turning to `COc1cc(C=O)ccc1O` [Vanillin], the Class result is recorded as “W (weak estrogen receptor binders were defined as having log(RBA)<−3.0)”.

The next experiment has as its system estrogen receptor.
Experiment: not given
Conditions: 107-compound training set; cited from earlier work.
In the case of `Oc1ccc(Cl)cc1Cc1cc(Cl)ccc1O` [2,2′-Methylenebis (4-chlorophenol)], the “log RBA” value is listed as −2.45.

Turning to `O=C(c1ccccc1)c1ccc(O)cc1O` [2,4-Dihydroxybenzophenone], the “log RBA” value is reported as −2.61.

For `Oc1cccc(-c2ccccc2)c1` [3-Phenylphenol], the “log RBA” value is −3.44.

As to `O=C(c1ccc(O)cc1)c1ccc(O)cc1` [4,4′-Dihydroxybenzophenone], the “log RBA” value is listed as −2.46.

In the case of `O=S(=O)(c1ccc(O)cc1)c1ccc(O)cc1` [4,4′-Sulfonylphenol], the “log RBA” value is −3.07.

Turning to `Oc1ccc(OCc2ccccc2)cc1` [4-Benzyloxyphenol], the “log RBA” value was −3.44.

As for `Cc1cc(O)ccc1Cl` [4-Chloro-3-methylphenol], the “log RBA” value is listed as −3.38.

In the case of `CCCCCCCCCc1ccc(O)cc1` [4-Nonylphenol], the “log RBA” value was −1.45.

`CC/C(=C(\c1ccc(O)cc1)c1ccc(OCCN(C)C)cc1)c1ccccc1` [4-OH-Tamoxifen]: the “log RBA” value is reported as 2.24.

On to `Oc1ccc(-c2ccccc2)cc1` [4-Phenylphenol], for which the “log RBA” value was −3.04.

Turning to `CCC(C)(C)c1ccc(O)cc1` [4-tert-Amylphenol], the “log RBA” value is reported as −3.26.

Take `CC(C)(C)c1ccc(O)cc1` [4-tert-Butylphenol]: the “log RBA” value was −3.61.

In the case of `O=C1C=CC(=C(c2ccc(O)cc2)c2ccc(O)cc2)C=C1` [Aurin], the “log RBA” value is on record as −1.49.

As to `Oc1ccc(Cc2ccc(O)cc2)cc1` [BIS (4-hydroxyphenyl)-methane], the “log RBA” value is listed as −3.02.

For `CCC(C)(c1ccc(O)cc1)c1ccc(O)cc1` [Bisphenol B], the “log RBA” value was −1.07.

On to `Clc1ccc(C(c2ccccc2Cl)C(Cl)(Cl)Cl)cc1` (stereo not shown) [DDT-o,p′], for which the “log RBA” value is reported as −2.85.

As to `CC(CCC(=O)O)(c1ccc(O)cc1)c1ccc(O)cc1` [Diphenolic acid], the “log RBA” value is reported as −3.13.

Consider `C[C@]12CC[C@@H]3c4ccc(O)cc4[C@@H](O)C[C@H]3[C@@H]1CC[C@@H]2O` [Estra-1,3,5(10)-trien-3,6α,17β-triol], for which the “log RBA” value is −0.15.

Take `C[C@@]12CCC[C@H]1[C@@H]1CCc3cc(O)ccc3[C@H]1CC2` [Estra-1,3,5(10)-trien-3-ol]: the “log RBA” value was 1.14.

With `C#C[C@]1(O)CC[C@H]2[C@@H]3CCc4cc(OC)ccc4[C@H]3CC[C@@]21C` [Mestranol], the RBA is recorded as 035.

Source of the values: patent US6898533B1, “Methods for predicting the biological, chemical, and physical properties of molecules from their spectral properties” (The United States of America as represented by the …, priority 2000, dated 2005).
